Measurements published in PubChem BioAssay (NCI).
Several values for one entry are separate records, joined by “and”; a condition that tells them apart may be missing. Equal entries are not always repeated.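 In this assay, cells in 96-well plates receive the compound at five concentrations for 48 hours. Endpoints are linearly interpolated between the surrounding concentrations. GI50 = concentration required for 50% inhibition of growth. TGI denotes the concentration required for complete inhibition of growth.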

Columns and labels:
Experiment in all cases: inhibition of tumour cell growth, NCI panel, 48 h
SNB-19 CNS = system: SNB-19 CNS
UO-31 renal = system: UO-31 renal
SR leukemia = system: SR leukemia
MOLT-4 leukemia = system: MOLT-4 leukemia
KM12 colon = system: KM12 colon
HOP-62 NSCLC = system: HOP-62 NSCLC
SF-295 CNS = system: SF-295 CNS
NCI-H522 lung = system: NCI-H522 lung
DU-145 prostate = system: DU-145 prostate
MALME-3M melanoma = system: MALME-3M melanoma
SF-539 CNS = system: SF-539 CNS
A498 renal = system: A498 renal
786-0 renal = system: 786-0 renal
EKVX NSCLC = system: EKVX NSCLC
SW-620 colon = system: SW-620 colon
HCT-116 colon = system: HCT-116 colon
HT29 colon = system: HT29 colon
HCT-15 colon = system: HCT-15 colon
NCI/ADR-RES ovarian = system: NCI/ADR-RES ovarian
HS 578T breast = system: HS 578T breast
NCI-H226 lung = system: NCI-H226 lung
U251 CNS = system: U251 CNS
ACHN renal = system: ACHN renal
RPMI-8226 leukemia = system: RPMI-8226 leukemia
SN12C renal = system: SN12C renal
OVCAR-4 ovarian = system: OVCAR-4 ovarian
MDA-MB-435 = system: MDA-MB-435
TK-10 renal = system: TK-10 renal
SF-268 CNS = system: SF-268 CNS
BT-549 breast = system: BT-549 breast
MCF7 breast = system: MCF7 breast
COLO 205 colon = system: COLO 205 colon
NCI-H460 lung = system: NCI-H460 lung
A549 NSCLC = system: A549 NSCLC
OVCAR-3 ovarian = system: OVCAR-3 ovarian
NCI-H23 lung = system: NCI-H23 lung
PC-3 prostate = system: PC-3 prostate
SK-MEL-5 melanoma = system: SK-MEL-5 melanoma
CCRF-CEM leukemia = system: CCRF-CEM leukemia
K-562 leukemia = system: K-562 leukemia
SNB-75 CNS = system: SNB-75 CNS
LOX IMVI melanoma = system: LOX IMVI melanoma
MDA-MB-231 breast = system: MDA-MB-231 breast
SK-MEL-28 melanoma = system: SK-MEL-28 melanoma
HL-60(TB) leukemia = system: HL-60(TB) leukemia
UACC-257 melanoma = system: UACC-257 melanoma
OVCAR-8 ovarian = system: OVCAR-8 ovarian
M14 melanoma = system: M14 melanoma
OVCAR-5 ovarian = system: OVCAR-5 ovarian
IGROV1 ovarian = system: IGROV1 ovarian
HOP-92 NSCLC = system: HOP-92 NSCLC
UACC-62 melanoma = system: UACC-62 melanoma
HCC-2998 colon = system: HCC-2998 colon
SK-OV-3 ovarian = system: SK-OV-3 ovarian
RXF 393 renal = system: RXF 393 renal
T-47D breast = system: T-47D breast

COC(=O)[C@@H](C)C[C@H](Cc1ccccc1)NC(=O)c1csc([C@@H](C[C@H](C(C)C)N(C)C(=O)C2(NC(=O)[C@H]3CCCCN3C)CCC2)OC(C)=O)n1
GI50 (SNB-19 CNS): 7.08 nM | GI50 (UO-31 renal): 734 nM and 157 nM | TGI (UO-31 renal): > 25000 nM | GI50 (SR leukemia): 0.495 nM and 2.5 nM | TGI (SR leukemia): > 25000 nM | GI50 (MOLT-4 leukemia): 10.7 nM and 7.14 nM | TGI (MOLT-4 leukemia): > 25000 nM | GI50 (KM12 colon): 3.19 nM and 5.22 nM | TGI (KM12 colon): > 25000 nM | GI50 (HOP-62 NSCLC): 36.7 nM and 7.06 nM | TGI (HOP-62 NSCLC): > 25000 nM | GI50 (SF-295 CNS): 16.9 nM and 4.04 nM | TGI (SF-295 CNS): > 25000 nM | GI50 (NCI-H522 lung): 1.65 nM | GI50 (DU-145 prostate): 3.51 nM and 2.5 nM | TGI (DU-145 prostate): > 25000 nM | GI50 (MALME-3M melanoma): 2.5 nM | TGI (MALME-3M melanoma): > 25000 nM | GI50 (SF-539 CNS): 7.84 nM and 4.41 nM | TGI (SF-539 CNS): 51.8 nM and 13.7 nM | GI50 (A498 renal): 16.4 nM and 5.48 nM | TGI (A498 renal): 87.4 nM | TGI (786-0 renal): > 25000 nM | TGI (EKVX NSCLC): > 25000 nM | GI50 (SW-620 colon): 5.13 nM and 2.5 nM | TGI (SW-620 colon): > 25000 nM | GI50 (HCT-116 colon): 4.47 nM and 2.5 nM | TGI (HCT-116 colon): 2520 nM | GI50 (HT29 colon): 2.69 nM and 2.5 nM | TGI (HT29 colon): > 25000 nM | GI50 (HCT-15 colon): 94.4 nM and 66.5 nM | TGI (HCT-15 colon): > 25000 nM | GI50 (NCI/ADR-RES ovarian): 16900 nM | TGI (NCI/ADR-RES ovarian): > 25000 nM | GI50 (HS 578T breast): 46.3 nM | GI50 (NCI-H226 lung): 54.7 nM | TGI (NCI-H226 lung): > 25000 nM | GI50 (U251 CNS): 5.45 nM and 6.27 nM | TGI (U251 CNS): > 25000 nM | GI50 (ACHN renal): 24.9 nM and 19.3 nM | TGI (ACHN renal): > 25000 nM | GI50 (RPMI-8226 leukemia): 2.59 nM and 2.5 nM | TGI (RPMI-8226 leukemia): > 25000 nM | GI50 (SN12C renal): 8.7 nM and 17 nM | TGI (SN12C renal): > 25000 nM | TGI (OVCAR-4 ovarian): > 25000 nM | GI50 (MDA-MB-435): 0.325 nM and < 2.5 nM | TGI (MDA-MB-435): 1.79 nM and < 2.5 nM | TGI (TK-10 renal): > 25000 nM | GI50 (SF-268 CNS): 6.61 nM and 17.5 nM | TGI (SF-268 CNS): > 25000 nM | GI50 (BT-549 breast): 2.5 nM | TGI (BT-549 breast): 15.7 nM | GI50 (MCF7 breast): 0.508 nM and 2.5 nM | TGI (MCF7 breast): > 25000 nM | GI50 (COLO 205 colon): 3.35 nM and 2.5 nM | TGI (COLO 205 colon): 120 nM and 18.2 nM | GI50 (NCI-H460 lung): 5.49 nM and 5.7 nM | TGI (NCI-H460 lung): > 25000 nM | GI50 (A549 NSCLC): 56.4 nM and 13.6 nM | TGI (A549 NSCLC): > 25000 nM | GI50 (OVCAR-3 ovarian): 0.487 nM and 2.5 nM | TGI (OVCAR-3 ovarian): 10.1 nM and 6.72 nM | GI50 (NCI-H23 lung): 7.79 nM and 8.92 nM | TGI (NCI-H23 lung): > 25000 nM | GI50 (PC-3 prostate): 4.06 nM and 2.5 nM | TGI (PC-3 prostate): > 25000 nM | GI50 (SK-MEL-5 melanoma): 4.01 nM and 2.5 nM | TGI (SK-MEL-5 melanoma): 146 nM and 125 nM | GI50 (CCRF-CEM leukemia): 5.33 nM and 2.5 nM | TGI (CCRF-CEM leukemia): > 25000 nM | GI50 (K-562 leukemia): 2.52 nM and 2.5 nM | TGI (K-562 leukemia): > 25000 nM | GI50 (SNB-75 CNS): 3.51 nM and 3.19 nM | TGI (SNB-75 CNS): > 25000 nM | GI50 (LOX IMVI melanoma): 7.71 nM and 2.5 nM | TGI (LOX IMVI melanoma): > 25000 nM | GI50 (MDA-MB-231 breast): 5.84 nM and 2.5 nM | TGI (MDA-MB-231 breast): 152 nM | GI50 (SK-MEL-28 melanoma): 30.7 nM and 6.67 nM | TGI (SK-MEL-28 melanoma): > 25000 nM | GI50 (HL-60(TB) leukemia): 1.16 nM and < 2.5 nM | TGI (HL-60(TB) leukemia): 5.69 nM and < 2.5 nM | GI50 (UACC-257 melanoma): > 25000 nM | TGI (UACC-257 melanoma): > 25000 nM | GI50 (OVCAR-8 ovarian): 16.8 nM and 6.26 nM | TGI (OVCAR-8 ovarian): > 25000 nM | GI50 (M14 melanoma): 4.13 nM and 2.5 nM | TGI (M14 melanoma): 56.4 nM and 10.7 nM | GI50 (OVCAR-5 ovarian): 78.6 nM and 9.9 nM | TGI (OVCAR-5 ovarian): > 25000 nM | GI50 (IGROV1 ovarian): 0.863 nM and 2.5 nM | TGI (IGROV1 ovarian): > 25000 nM | GI50 (HOP-92 NSCLC): 0.886 nM and 2.5 nM | GI50 (UACC-62 melanoma): 2.44 nM and 2.5 nM | TGI (UACC-62 melanoma): > 25000 nM | GI50 (HCC-2998 colon): 5.01 nM and 6.28 nM | TGI (HCC-2998 colon): > 25000 nM | GI50 (SK-OV-3 ovarian): 15.6 nM and 5.04 nM | TGI (SK-OV-3 ovarian): > 25000 nM

CN1c2ccccc2C(=O)NC12CCNCC2
TGI (SNB-19 CNS): > 100000 nM | TGI (UO-31 renal): > 100000 nM | TGI (SR leukemia): > 100000 nM | TGI (MOLT-4 leukemia): > 100000 nM | TGI (KM12 colon): > 100000 nM | TGI (HOP-62 NSCLC): > 100000 nM | TGI (SF-295 CNS): > 100000 nM | TGI (DU-145 prostate): > 100000 nM | TGI (MALME-3M melanoma): > 100000 nM | TGI (SF-539 CNS): > 100000 nM | TGI (A498 renal): > 100000 nM | TGI (786-0 renal): > 100000 nM | TGI (RXF 393 renal): > 100000 nM | TGI (EKVX NSCLC): > 100000 nM | TGI (SW-620 colon): > 100000 nM | TGI (HCT-116 colon): > 100000 nM | TGI (HT29 colon): > 100000 nM | TGI (NCI/ADR-RES ovarian): > 100000 nM | TGI (HS 578T breast): 40000 nM | TGI (NCI-H226 lung): > 100000 nM | TGI (U251 CNS): > 100000 nM | TGI (ACHN renal): > 100000 nM | TGI (RPMI-8226 leukemia): > 100000 nM | TGI (OVCAR-4 ovarian): > 100000 nM | TGI (MDA-MB-435): > 100000 nM | TGI (TK-10 renal): > 100000 nM | TGI (SF-268 CNS): > 100000 nM | TGI (MCF7 breast): > 100000 nM | TGI (COLO 205 colon): > 100000 nM | TGI (NCI-H460 lung): > 100000 nM | TGI (A549 NSCLC): > 100000 nM | TGI (NCI-H23 lung): > 100000 nM | TGI (SK-MEL-5 melanoma): > 100000 nM | TGI (CCRF-CEM leukemia): > 100000 nM | TGI (K-562 leukemia): > 100000 nM | TGI (SNB-75 CNS): > 100000 nM | TGI (T-47D breast): > 100000 nM | TGI (LOX IMVI melanoma): > 100000 nM | TGI (SK-MEL-28 melanoma): > 100000 nM | TGI (HL-60(TB) leukemia): > 100000 nM | TGI (UACC-257 melanoma): > 100000 nM | TGI (OVCAR-8 ovarian): > 100000 nM | TGI (M14 melanoma): > 100000 nM | TGI (OVCAR-5 ovarian): > 100000 nM | TGI (IGROV1 ovarian): > 100000 nM | TGI (HOP-92 NSCLC): > 100000 nM | TGI (UACC-62 melanoma): > 100000 nM | TGI (HCC-2998 colon): > 100000 nM | TGI (SK-OV-3 ovarian): > 100000 nM
